Experimental data: patent publication US5629298A, “Adenosine as a positive inotrop in the compromised heart” (University of Massachusetts Medical Center, priority 1995, dated 1997)
Like-named read-outs stand apart in the source and are kept apart here.

Experiments:
rat ventricular myocytes = test: Contractile function of individual ventricular myocytes (line scan camera edge detection, paced at 0.5 Hz); assay type: cell-based; conditions: for +dL/dtmax, maximal rate of shortening / -dL/dtmax, maximal rate of relaxation / DS, duration of shortening / LC, maximum length change (shortening) with contraction / TPS, time-to-peak shortening / TR, time to 75% relaxation: mean ± SE
Experimental: Primary cultures of adult rat ventricular myocytes were prepared essentially according to previously described methods (Romano et al., Am. J. Physiol. 257:H1088 (1989)). Two male Sprague-Dawley rats (Charles River, Wilmington, Mass. or Harlan, Indianapolis, Ind.) were decapitated, and the hearts were rapidly excised and constant pressure (70 cm H2) and nonrecirculated) perfused for 10 minutes through the aortas with filtered (0.45 μm membrane filter) perfusing solution (NaCl, 118 mM; glucose, 10 mM; NaHCO3 25 mM; KCl, 4.69 mM; MgSO4 1.18 mM; and KH2 PO4, 1.18 mM; (pH 7.4)), to which […] was added, at 37° C. After equilibration, the hearts were constant pressure perfused with fresh physiological saline ("PS") containing no added Ca^2+ until spontaneous contractions ceased (i.e., ~30 seconds). The hearts were then perfused for 4-10 minutes in a nonrecirculating manner with PS containing 0.73 mg/ml collagenase, 0.16 mg/ml hyaluronidase, 1 mg/ml recrystallized bovine serum albumin ("BSA") and 48.4 μM Ca^2+ at a rate of 3-4 ml/min/heart. Ventricles, free of atria, were removed from the perfusion system, cut into 8 pieces and placed in a 50 ml Erlenmeyer flask with 5 ml of PS containing 0.73 mg/ml collagenase, 0.16 mg/ml hyaluronidase, 2.5 mg/ml BSA, and 50 μM Ca^2+ (incubation solution). The flask was gently shaken (40 cycles/min) in a reciprocating water bath with continuous gassing (95% O2, 5% CO2) for 7 minutes at 37° C. The incubation solution was aspirated and this shaking procedure was repeated with fresh incubation solution 3-5 times depending on the likelihood that the tissue was ready to dissociate. After the final incubation period, the solution was aspirated and replaced with 10 ml of fresh incubation solution. The flask was then shaken rapidly (120 cycles/min) for 10 minutes with gassing to dissociate the myocytes. The flask contents were filtered through a 250 μm nylon mesh into a 50 ml polypropylene centrifuge tube, to which 40 ml of PS containing 5.95 mg/ml BSA and 99.7 μm Ca^2+ (wash solution) was gradually added.
The myocytes were allowed to settle for 15 minutes, and the upper two thirds of the wash solution was aspirated. Upon the addition of 30-35 ml of wash solution, this settling step was repeated. The wash solution was aspirated and the myocyte pellet was resuspended in 10 ml of minimum essential medium ("MEM"). The myocyte suspension was allowed to settle for 5 minutes and then brought to a final volume of 22 ml with MEM. Two milliliters of the myocyte suspension was seeded onto each of 60 mm culture dishes containing 2 ml of MEM.
The contractile function of individual myocytes was assessed by dispersing 50-100 cells in a 506 μl myocyte chamber (11×23×2 mm deep). The chamber (FIG. 1) was continuously suffused (850 μl/min) with fresh suffusion solution ("SS") in mM: 136.4 NaCl, 4.7 KCl, 1.0 CaCl2, 10 hydroxyethylpiperzine-ethanesulfonicacid (HEPES), 1.0 NaHCO3, 1.2 MgSO4, 1.2 KH2 PO4, 10 glucose, 0.6 ascorbate, 1.0 pyruvate) at 20° C. The chamber was mounted on an inverted microscope stage and contained platinum wire electrodes for initiating myocyte contraction at 0.5 Hz (voltage 10% above threshold for 5 msec duration).
The image of the myocyte was projected via an inverted microscope at 300× onto a line scan camera (Fairchild, Model 1600R) containing a linear array (1×3456) of photodiodes. When aligned with the longitudinal axis of the cell the camera detected the movement of the 2 ends of the myocyte upon contraction (shortening and relengthening). […] When the myocyte was transilluminated, both ends of the cell were easily discriminated. Myocyte length and length change with respect to time for a single contraction was measured by determining the pixels in which the appropriate transitions between light and dark occurred. The line scan camera was calibrated with a stage micrometer scaled in 10 μm divisions. The signals from the camera were directed to a Hewlett Packard computer (Model Vectra RS/20C). […]

[1] = system: ventricular myocyte membrane adenylyl cyclase; test: Adenylyl cyclase activity of ventricular myocyte membranes; assay type: biochemical, rat
Experimental: After a 3-4 hour incubation period, myocytes were harvested by placing the culture dishes on ice; aspirating and discarding the culture medium; scraping the attached cells into 1 ml of ice cold buffer (pH 7.4) containing 10 mM HEPES and 1 mM dithiothreitol (DTT); and transferring the mixture to a 40 ml centrifuge tube. The culture dishes were rinsed twice with buffer, and the rinses were added to the centrifuge tube. The myocytes were centrifuged at 45,000 x g for 45 minutes and the supernatant was discarded. The pellet was resuspended in 40 mM HEPES (pH 7.4) to yield 3.5-4 mg protein/ml and homogenized with a small clearance Dounce tissue grinder (8 strokes). The membranes were centrifugated as described above, resuspended (3-4 mg protein/ml) in 40 mM HEPES (pH 7.4), and assayed for adenylyl cyclase activity immediately or stored at -80° C. and assayed within 10 days.
The assay system used to measure adenylyl cyclase activity minimizes the formation of endogenous adenosine. The assay used was essentially as described by Romano et al. (supra). Myocyte membranes (15-25 μg protein) were incubated in 50 μl of a buffer containing 40 mM HEPES (pH 7.4), 5 mM MgCl2, 1 mM DTT, 5.5 mM KCl, 0.1 mM 2'-deoxy-cAMP (dcAMP), 0.1 mM 2'-deoxy ATP (dATP), 20 mM phosphoenolpyruvate, 2 units pyruvate kinase, 0.25 units adenosine deaminase, 1 mM ascorbic acid, 100 mM NaCl, 0.1 mM ethyleneglycol-bis (β-aminoethylether) N,N,N',N',-tetroaceticacid (EGTA), 10 μM guanosine 5'-triphosphate (GTP), and ~2×10^6 counts/minutes of [α-^32 P]dATP for 20 minutes at 30° C. The reaction was stopped by adding 40 μl of a solution containing 2% sodium dodecyl sulfate (SDS), 45 mM ATP, 1.3 mM cAMP, and [^3 H]dcAMP (~4000 count/min) and by boiling for 2 minutes.

[2] = 100 μM adenosine administered together with 0.2 μM DPCPX
[3] = Table 6, 10^-5 M SHA-082, 10^-5 M NECA, 10^-4 M adenosine, 2 × 10^-7 M DPCPX, 10^-5 M CGS-15943, N = 6
[4] = Rattus norvegicus, Ventricular myocyte, read-out: increase in TPS
[5] = Rattus norvegicus, Ventricular myocyte, read-out: increase in TR
[6] = Table 4, CGS-21680 10^-4 M, cumulative dose-response, every 10 min, N = 6
[7] = Table 4, CGS-21680 10^-5 M, cumulative dose-response, every 10 min, N = 6
[8] = Table 4, CGS-21680 10^-6 M, cumulative dose-response, every 10 min, N = 9
[9] = Table 4, CGS-21680 10^-7 M, cumulative dose-response, every 10 min, N = 9
[10] = Table 4, CGS-21680 10^-8 M, cumulative dose-response, every 10 min, N = 8
[11] = Table 5, CGS-21680 and/or CGS-15943 at 10^-5 M, 10 min, N = 6

Nc1ncnc2c1ncn2[C@@H]1O[C@H](CO)[C@@H](O)[C@H]1O [adenosine]
increase in +dL/dtmax (rat ventricular myocytes; [2]): 29%
increase in DS (rat ventricular myocytes; [2]): 20%
increase in LC (rat ventricular myocytes; [2]): 35%
increase in TPS (rat ventricular myocytes; [2]): 27%
increase in TR (rat ventricular myocytes; [2]): 37%
effect on myocyte contractility when administered alone (rat ventricular myocytes; 100 μM adenosine or 0.2 μM DPCPX): without effect
+dL/dtmax, maximal rate of shortening (rat ventricular myocytes; [3]): 180 ± 10 μm/msec
-dL/dtmax, maximal rate of relaxation (rat ventricular myocytes; [3]): 151 ± 10 μm/msec
DS, duration of shortening (rat ventricular myocytes; [3]): 293 ± 16 ms
LC, maximum length change (shortening) with contraction (rat ventricular myocytes; [3]): 16 ± 1 μm
TPS, time-to-peak shortening (rat ventricular myocytes; [3]): 120 ± 4 ms
TR, time to 75% relaxation (rat ventricular myocytes; [3]): 281 ± 12 ms
adenylyl cyclase activity above basal levels ([1]; adenosine at 0 to 1 mM, absence or presence of 1 μM DPCPX, ventricular myocyte membranes): did not increase

CCNC(=O)[C@H]1O[C@@H](n2cnc3c(N)nc(NCCc4ccc(CCC(=O)O)cc4)nc32)[C@H](O)[C@@H]1O [CGS-21680, 2-p-(2-carboxy-ethyl)phenethyl-amino-5'-N-ethylcarboxamido-adenosine]
effect on -dL/dtmax (rat ventricular myocytes; CGS-21680, Table 4 concentrations): did not affect
contractility variables compared to 1 μM CGS-21680 in the absence of DPCPX (rat ventricular myocytes; CGS-21680 at 1 μM in the presence of 0.2 μM DPCPX): no further increases
EC50 (rat ventricular myocytes; Rattus norvegicus, Ventricular myocyte, read-out: EC50 for +dL/dtmax): 13.2 ± 5.6 nM
EC50 (rat ventricular myocytes; Rattus norvegicus, Ventricular myocyte, read-out: EC50 for DS): 26 ± 5.4 nM
EC50 (rat ventricular myocytes; Rattus norvegicus, Ventricular myocyte, read-out: EC50 for LC): 6.1 ± 2 nM
EC50 (rat ventricular myocytes; Rattus norvegicus, Ventricular myocyte, read-out: EC50 for TPS): 48.2 ± 6.7 nM
EC50 (rat ventricular myocytes; Rattus norvegicus, Ventricular myocyte, read-out: EC50 for TR): 28.9 ± 8.7 nM
activation at 0.1 µM (rat ventricular myocytes; Rattus norvegicus, Ventricular myocyte, read-out: increase in +dL/dtmax): 27%
activation at 0.1 µM (rat ventricular myocytes; Rattus norvegicus, Ventricular myocyte, read-out: increase in DS): 32%
activation at 0.1 µM (rat ventricular myocytes; Rattus norvegicus, Ventricular myocyte, read-out: increase in LC): 28%
activation at 0.01 µM (rat ventricular myocytes; [4]): 11%
activation at 0.1 µM (rat ventricular myocytes; [4]): 30%
activation at 0.01 µM (rat ventricular myocytes; [5]): 12%
activation at 0.1 µM (rat ventricular myocytes; [5]): 22%
+dL/dtmax, maximal rate of shortening (rat ventricular myocytes; [6]): 158 ± 14 μm/msec
-dL/dtmax, maximal rate of relaxation (rat ventricular myocytes; [6]): 108 ± 16 μm/msec
DS, duration of shortening (rat ventricular myocytes; [6]): 404 ± 17 ms
LC, maximum length change (shortening) with contraction (rat ventricular myocytes; [6]): 22 ± 2 μm
TPS, time-to-peak shortening (rat ventricular myocytes; [6]): 156 ± 3 ms
TR, time to 75% relaxation (rat ventricular myocytes; [6]): 322 ± 12 ms
+dL/dtmax, maximal rate of shortening (rat ventricular myocytes; [7]): 187 ± 13 μm/msec
-dL/dtmax, maximal rate of relaxation (rat ventricular myocytes; [7]): 127 ± 13 μm/msec
DS, duration of shortening (rat ventricular myocytes; [7]): 460 ± 18 ms
LC, maximum length change (shortening) with contraction (rat ventricular myocytes; [7]): 26 ± 3 μm
TPS, time-to-peak shortening (rat ventricular myocytes; [7]): 192 ± 4 ms
TR, time to 75% relaxation (rat ventricular myocytes; [7]): 397 ± 14 ms
+dL/dtmax, maximal rate of shortening (rat ventricular myocytes; [8]): 188 ± 11 μm/msec
-dL/dtmax, maximal rate of relaxation (rat ventricular myocytes; [8]): 121 ± 15 μm/msec
DS, duration of shortening (rat ventricular myocytes; [8]): 458 ± 12 ms
LC, maximum length change (shortening) with contraction (rat ventricular myocytes; [8]): 24 ± 2 μm
TPS, time-to-peak shortening (rat ventricular myocytes; [8]): 183 ± 5 ms
TR, time to 75% relaxation (rat ventricular myocytes; [8]): 390 ± 13 ms
+dL/dtmax, maximal rate of shortening (rat ventricular myocytes; [9]): 183 ± 14 μm/msec
-dL/dtmax, maximal rate of relaxation (rat ventricular myocytes; [9]): 126 ± 12 μm/msec
DS, duration of shortening (rat ventricular myocytes; [9]): 431 ± 14 ms
LC, maximum length change (shortening) with contraction (rat ventricular myocytes; [9]): 23 ± 2 μm
TPS, time-to-peak shortening (rat ventricular myocytes; [9]): 169 ± 3 ms
TR, time to 75% relaxation (rat ventricular myocytes; [9]): 361 ± 12 ms
+dL/dtmax, maximal rate of shortening (rat ventricular myocytes; [10]): 162 ± 13 μm/msec
-dL/dtmax, maximal rate of relaxation (rat ventricular myocytes; [10]): 125 ± 11 μm/msec
DS, duration of shortening (rat ventricular myocytes; [10]): 363 ± 15 ms
LC, maximum length change (shortening) with contraction (rat ventricular myocytes; [10]): 22 ± 2 μm
TPS, time-to-peak shortening (rat ventricular myocytes; [10]): 144 ± 4 ms
TR, time to 75% relaxation (rat ventricular myocytes; [10]): 334 ± 10 ms
+dL/dtmax, maximal rate of shortening (rat ventricular myocytes; [11]): 192 ± 11 μm/msec
-dL/dtmax, maximal rate of relaxation (rat ventricular myocytes; [11]): 122 ± 12 μm/msec
DS, duration of shortening (rat ventricular myocytes; [11]): 486 ± 15 ms
LC, maximum length change (shortening) with contraction (rat ventricular myocytes; [11]): 25 ± 2 μm
TPS, time-to-peak shortening (rat ventricular myocytes; [11]): 190 ± 4 ms
TR, time to 75% relaxation (rat ventricular myocytes; [11]): 392 ± 13 ms
EC50 (rat ventricular myocytes; read-out: EC50 for the contractile variables (length change, duration of shortening, time to peak shortening, time to 75% relaxation, +dL/dtmax), range over the five variables): 6 to 48 nM
increase in cyclase activity ([1]; CGS-21680 in the presence of 0.1 μM DPCPX): 49%
EC50 ([1]; in the presence of 0.1 μM DPCPX, read-out: EC50 for increase of adenylyl cyclase): 260 ± 80 nM
adenylyl cyclase response ([1]; no DPCPX, activating at 1-10 μM, reducing this activation at 0.1-1 mM): biphasic response
